Experimental data reported in the PolyMetriX glass transition set.
± gives the standard deviation of the reports.

glass transition temperature [°C]	SMILES
-12.00	*CCOCCOC(=O)C1CCC(C(=O)O*)CC1 (repeat unit)
0.90	*CC(=O)NCCCCCCNC(=O)COC(=O)CCCCCCCCCCC(=O)O* (repeat unit)
415.00	*Oc1ccc(S(=O)(=O)c2ccc(Oc3ccc4c(=O)n5c6cc(-c7ccc8c(c7)nc7c9ccc(*)c%10cccc(c(=O)n87)c%109)ccc6nc5c5cccc3c45)cc2)cc1 (repeat unit)
250.00	*Nc1ccc(/C=C/c2ccc(NC(=C(C#N)C#N)c3ccc(C(*)=C(C#N)C#N)cc3)cc2)cc1 (repeat unit)
322.00	*C(=O)Nc1ccc(C(=O)Nc2ccc(NC(=O)c3ccc4[nH]c(-c5cccc(-c6nc7cc(*)ccc7[nH]6)c5)nc4c3)cc2)cc1 (repeat unit)
383.00	*c1ccc(-c2ccc(-c3cc(-c4ccccc4)c4cc5nc(*)cc(-c6ccccc6)c5cc4n3)cc2)cc1 (repeat unit)
113.4 ± 2.1	*Oc1ccc(Sc2ccc(OC(*)=O)cc2)cc1 (repeat unit) [Poly(4,4'-thiodiphenylene carbonate)]
216.00	*Oc1ccc(Oc2ccc(C(=O)Nc3ccc(Cc4ccc(NC(=O)c5ccc(*)cc5)cc4)cc3)cc2)cc1 (repeat unit)
77.00	*CCCCCCc1nc2cc(NC(=O)CCCCCCC(=O)Nc3ccc4oc(*)nc4c3)ccc2o1 (repeat unit)
80.00	*CC(C)(C)C1C(=O)N(CCCC)C(=O)C1* (repeat unit)
250.00	*Oc1ccc(S(=O)(=O)c2ccc3ccc(S(=O)(=O)c4ccc(*)cc4)cc3c2)cc1 (repeat unit)
-12.00	*CCCCCCCCC(c1ccc(O)cc1)C(*)c1ccc(O)cc1C (repeat unit)
152.00	*CCOC(=O)Nc1ccc(Cc2ccc(NC(=O)OCCOc3ccc(C4(c5ccc(O*)cc5)c5ccccc5-c5ccccc54)cc3)cc2)cc1 (repeat unit)
260.00	*C(=O)Nc1ccc(Oc2ccc(Oc3ccc(NC(=O)c4ccc5c(c4)C(=O)N(c4ccc(Oc6ccc(N7C(=O)c8ccc(*)cc8C7=O)cc6)cc4)C5=O)cc3)cc2)cc1 (repeat unit)
-35.10	*CCCCCCCCCCCCCCCCCCCCOC(=O)CC(=O)O* (repeat unit)
154.00	*Oc1ccc(C(=O)c2ccc(*)cc2)cc1 (repeat unit)
73.00	*O[Si](C)(C)COC(=O)CCCCCCCCC(=O)Oc1ccc(S(=O)(=O)c2ccc(Oc3ccc(/C=C4\CC/C(=C\c5ccc(Oc6ccc(S(=O)(=O)c7ccc(OC(=O)CCCCCCCCC(=O)OC[Si](*)(C)C)cc7)cc6)cc5)C4=O)cc3)cc2)cc1 (repeat unit)
137.50	*CC(O)COc1ccc(C(C)(C)c2ccc(OCC(O)COc3c(C)cc(S(=O)(=O)c4cc(C)c(O*)c(C)c4)cc3C)cc2)cc1 (repeat unit)
208.2 ± 12	*c1ccc(Oc2cccc(Oc3ccc(N4C(=O)c5ccc(Oc6ccc7c(c6)C(=O)N(*)C7=O)cc5C4=O)cc3)c2)cc1 (repeat unit)
340.00	*Nc1ccc(-c2ccc(NC(=O)c3ccc(C(*)=O)cc3)cc2)cc1 (repeat unit)
192.00	*c1ccc(Oc2ccc(C(=O)c3cccc(C(=O)c4ccc(Oc5ccc(N6C(=O)c7ccc(Oc8ccc(Sc9ccc(Oc%10ccc%11c(c%10)C(=O)N(*)C%11=O)cc9)cc8)cc7C6=O)cc5)cc4)c3)cc2)cc1 (repeat unit)
186.00	*Oc1ccc(C(C)(C)c2ccc(Oc3ccc(C(=O)c4ccc(-c5ccc(C(=O)c6ccc(*)cc6)cc5)cc4)cc3)cc2)cc1 (repeat unit)
166.00	*Oc1ccc(Oc2ccc(C(=O)c3ccc(C(=O)c4ccc(*)cc4)cc3)cc2)cc1-c1ccccc1 (repeat unit)
190.00	*CCCCN1C(=O)c2ccc(C(c3ccc4c(c3)C(=O)N(*)C4=O)(C(F)(F)F)C(F)(F)F)cc2C1=O (repeat unit)
53.00	*CC(COC(=O)O*)OCCOc1ccc(/C=C/c2ccc([N+](=O)[O-])cc2)cc1 (repeat unit)
282.00	*c1ccc(Oc2ccc(C3(c4ccc(Oc5ccc(N6C(=O)c7ccc(Oc8c(C)cc(C(C)(C)c9cc(C)c(Oc%10ccc%11c(c%10)C(=O)N(*)C%11=O)c(C)c9)cc8C)cc7C6=O)cc5)cc4)C4CC5CC(C4)CC3C5)cc2)cc1 (repeat unit)

glass transition temperature [°C]	SMILES
16.00	*CCOCCOCCOc1ccc(/C=C(\C)c2ccc(O*)cc2)cc1 (repeat unit)
281.50	*c1ccc(C(=O)Nc2ccc(Oc3ccc(Oc4ccc(NC(=O)c5ccc(Oc6ccc(-c7nn(*)c(=O)c8ccccc78)c7ccccc67)cc5)cc4C(F)(F)F)cc3)c(C(F)(F)F)c2)cc1 (repeat unit)
55.70	*/C=C/c1ccc(/C=C/[Si](C)(CCC(F)(F)F)c2ccc([Si](*)(C)CCC(F)(F)F)cc2)cc1 (repeat unit)
140.00	*CC(*)(C)C(=O)OCCN(CC)c1ccc(/N=N/c2nc3ccc([N+](=O)[O-])cc3s2)cc1 (repeat unit)
54.00	*CCCCCCNC(=O)CCCCCC(=O)N* (repeat unit)
-10.00	*c1ccc(-c2cc(CCCCCCCC)c(-c3ccc(-c4ccc(-c5sc(-c6ccc([Si](CCCC)(CCCC)[Si](*)(CCCC)CCCC)s6)cc5CCCCCCCC)s4)s3)s2)s1 (repeat unit)
240.00	*c1ccc(Oc2ccc(-c3nnc(*)o3)cc2)cc1 (repeat unit)
392.00	*c1ccc(-c2cnc3cc4nc(*)cnc4cc3n2)cc1 (repeat unit)
122.00	*CCN(*)C(=O)c1c(F)c(F)cc(F)c1F (repeat unit)
155.00	*Oc1ccc(C(=O)NCC(C)(C)CCCNC(=O)c2ccc(*)cc2)cc1 (repeat unit)
194.00	*Oc1ccc(C(C)(C)c2ccc(OC(=O)c3ccc(C(=O)c4ccc(C(*)=O)cc4)cc3)cc2)cc1 (repeat unit)
236.00	*CC1CCC(CNC(=O)c2cc(C(=O)N*)cc(C(C)(C)C)c2)CC1 (repeat unit)
257.00	*c1ccc(Oc2ccc(-c3ccc(Oc4ccc(N5C(=O)c6ccc(Oc7c(C)cc(C(C)(C)c8cc(C)c(Oc9ccc%10c(c9)C(=O)N(*)C%10=O)c(C)c8)cc7C)cc6C5=O)cc4)cc3C)c(C)c2)cc1 (repeat unit)
-72.00	*CC(*)(C)C(=O)OCCCCCCCCCCCCCC (repeat unit)
201.00	*c1ccc(Oc2ccc(Oc3ccc(N4C(=O)c5ccc(Oc6ccc(Sc7ccc(Oc8ccc9c(c8)C(=O)N(*)C9=O)cc7)cc6)cc5C4=O)cc3)cc2)cc1 (repeat unit)
158.00	*Nc1ccc(CC(C)(C)NC(=O)CCC(*)=O)cc1 (repeat unit)
182.00	*CCCCNC(=O)c1ccc(C(C)(CC)c2ccc(C(=O)N*)cc2)cc1 (repeat unit)
16.00	*CCCCCC(c1ccc(O)cc1)C(*)c1ccc(O)cc1C (repeat unit)
294.00	*C(=O)c1ccc2c(c1)C(=O)N(c1cccc(Nc3nc(Nc4cccc(N5C(=O)c6ccc(*)cc6C5=O)c4)nc(N(C)C)n3)c1)C2=O (repeat unit)
45.00	*CCCCOc1ccc(C(=O)OC(=O)c2ccc(O*)cc2)cc1 (repeat unit)
128.00	*NC1CC(C)(C)CC(C)(CNC(=O)c2cc(NC(=O)C(C(C)CC)N3C(=O)c4ccccc4C3=O)cc(C(*)=O)c2)C1 (repeat unit)
220.00	*Oc1ccc(S(=O)(=O)c2ccc(Oc3cccc(NC(=O)c4ccc(-c5ccc(C(=O)Nc6cccc(*)c6)c(C)c5)cc4C)c3)cc2)cc1 (repeat unit)
103.00	*CCCCCCCCCCN1C(=O)c2ccc(-c3ccc(-c4ccc5c(c4)C(=O)N(*)C5=O)cc3)cc2C1=O (repeat unit)
287.00	*Oc1ccc(NC(=O)c2ccc(S(=O)(=O)c3ccc(C(=O)Nc4ccc(Oc5ccc(C6(c7ccc(*)cc7)CC7CCC6C7)cc5)cc4)cc3)cc2)cc1 (repeat unit)
226.00	*Oc1ccc(-c2ccc(Oc3ccc(*)cc3)c3ccccc23)c2ccccc12 (repeat unit)
225.00	*c1ccc(-c2ccc(N(*)c3ccc(C(F)(F)F)cc3)cc2)cc1 (repeat unit)

SMILES	glass transition temperature [°C]
*CC(*)C(F)(F)C(F)(F)C(F)(F)F (repeat unit) [Poly[(heptafluoropropyl)ethylene] ]	58 ± 0.6
*CC(*)N1CCCC1=S (repeat unit)	80.00
*/C=C(/*)C(CCCCC)[Si](C)(C)C (repeat unit)	170.00
*CC(*)(CC(=O)O)C(=O)O (repeat unit)	141.00
*OC(=O)CCCCCCCCC(*)=O (repeat unit)	60.00
*Cc1cc(C(C)(C)C)cc(*)c1O (repeat unit)	50.00
*c1cccc(*)c1 (repeat unit)	104.93
*Sc1ccc(*)cc1 (repeat unit) [Poly[thio(p-phenylene)] ]	87 ± 2.2
*C(*)(F)F (repeat unit) [Poly(tetrafluoroethylene)]	118.42 ± 2.2
*c1ccc2c(c1)C(=O)N(c1cc(NC(=O)OCCN(CCOC(=O)Nc3cc(N4C(=O)c5ccc(C(*)(C(F)(F)F)C(F)(F)F)cc5C4=O)ccc3C)c3ccc(/N=N/c4ccc([N+](=O)[O-])cc4)cc3)ccc1C)C2=O (repeat unit)	196.00
*C[Si](*)(C)CCCOCCOCCOC (repeat unit)	-73.30
*CC(*)(C)C(=O)OCc1ccsc1 (repeat unit)	83.50
*C(=O)Nc1cccc(NC(=O)c2ccc3c(c2)C(=O)N(c2cccc(P(=O)(c4ccccc4)c4cccc(N5C(=O)c6ccc(*)cc6C5=O)c4)c2)C3=O)n1 (repeat unit)	156.00
